ChEMBL document CHEMBL2424533, “Design and regioselective synthesis of trifluoromethylquinolone derivatives as potent antimicrobial agents” (2013)
≈ marks a conversion by molar mass, not a printed value. Calls of active or inactive are those of the source. The rule behind the calls is not given here.

Legend:
Candida albicans [1] = assay: Antimicrobial activity against Candida albicans MTCC 183 at 100 ug/mL after 12 hrs by well diffusion method; type: functional; details: for zone of inhibition at 100 µg/mL: MTCC 183, 12 h, read-out: DIZ
Staphylococcus aureus [2] = details: MTCC 3160, 50 ug/mL
Description: (§1) Antimicrobial activity against Staphylococcus aureus MTCC 3160 at 50 ug/mL after 12 hrs by well diffusion method

Candida albicans [3] = assay: Antimicrobial activity against Candida albicans MTCC 183 at 50 ug/mL after 12 hrs by well diffusion method; type: functional; details: for zone of inhibition at 50 µg/mL: MTCC 183, 12 h, read-out: DIZ
Pseudomonas aeruginosa [4] = assay: Antimicrobial activity against Pseudomonas aeruginosa MTCC 4673 after 12 hrs by well diffusion method; type: functional; details: MTCC 4673, 12 h
Staphylococcus aureus [5] = assay: Antimicrobial activity against Staphylococcus aureus MTCC 3160 after 12 hrs by well diffusion method; type: functional; details: MTCC 3160, 12 h
[6] = system: Mycolicibacterium smegmatis; assay: Antimicrobial activity against Mycobacterium smegmatis MTCC 943 after 12 hrs by well diffusion method; type: functional; details: MTCC 943, 12 h
Pseudomonas aeruginosa [7] = assay: Antimicrobial activity against Pseudomonas aeruginosa MTCC 4673 at 50 ug/mL after 12 hrs by well diffusion method; type: functional; details: for zone of inhibition at 50 µg/mL: MTCC 4673, 12 h, read-out: DIZ
[8] = system: Mycolicibacterium smegmatis; assay: Antimicrobial activity against Mycobacterium smegmatis MTCC 943 at 50 ug/mL after 12 hrs by well diffusion method; type: functional; details: for zone of inhibition at 50 µg/mL: MTCC 943, 12 h, read-out: DIZ
Salmonella typhimurium [9] = assay: Antimicrobial activity against Salmonella typhimurium MTCC 3732 at 100 ug/mL after 12 hrs by well diffusion method; type: functional; details: for diameter of the inhibition zone (DIZ): Salmonella enterica subsp. enterica serovar Typhimurium; for zone of inhibition at 100 µg/mL: Salmonella enterica, MTCC 3732, 12 h, read-out: DIZ
Staphylococcus aureus [10] = assay: Antimicrobial activity against Staphylococcus aureus MTCC 3160 at 100 ug/mL after 12 hrs by well diffusion method; type: functional; details: for zone of inhibition at 100 µg/mL: MTCC 3160, 12 h, read-out: DIZ
Salmonella typhimurium [11] = assay: Antimicrobial activity against Salmonella typhimurium MTCC 3732 at 50 ug/mL after 12 hrs by well diffusion method; type: functional; details: for diameter of the inhibition zone (DIZ): Salmonella enterica subsp. enterica serovar Typhimurium; for zone of inhibition at 50 µg/mL: Salmonella enterica, MTCC 3732, 12 h, read-out: DIZ
Pseudomonas aeruginosa [12] = assay: Antimicrobial activity against Pseudomonas aeruginosa MTCC 4673 at 100 ug/mL after 12 hrs by well diffusion method; type: functional; details: for zone of inhibition at 100 µg/mL: MTCC 4673, 12 h, read-out: DIZ
Candida albicans [13] = assay: Antimicrobial activity against Candida albicans MTCC 183 after 12 hrs by well diffusion method; type: functional; details: MTCC 183, 12 h
Salmonella typhimurium [14] = assay: Antimicrobial activity against Salmonella typhimurium MTCC 3732 after 12 hrs by well diffusion method; type: functional, Salmonella enterica subsp. enterica serovar Typhimurium; details: Salmonella enterica, MTCC 3732, 12 h
[15] = system: Mycolicibacterium smegmatis; assay: Antimicrobial activity against Mycobacterium smegmatis MTCC 943 at 100 ug/mL after 12 hrs by well diffusion method; type: functional; details: for zone of inhibition at 100 µg/mL: MTCC 943, 12 h, read-out: DIZ
Penicillium chrysogenum = assay: Antimicrobial activity against Penicillium chrysogenum MTCC 6795 at 50 to 100 ug/mL after 48 hrs by well diffusion method; type: functional, organism-based
Staphylococcus aureus [16] = assay: microbe, parasite or virus in culture; details: MTCC 3160, 12 h, read-out: DIZ
Description: as §1

Structure (SMILES)	zone of inhibition at 100 µg/mL (Candida albicans [1]) [mm]	DIZ (Staphylococcus aureus [2])	zone of inhibition at 50 µg/mL (Candida albicans [3]) [mm]	MIC (Pseudomonas aeruginosa [4]) [µg/mL]	MIC (Staphylococcus aureus [5]) [µg/mL]	MIC [6] [µg/mL]	zone of inhibition at 50 µg/mL (Pseudomonas aeruginosa [7]) [mm]	diameter of the inhibition zone (DIZ) [8]	diameter of the inhibition zone (DIZ) (Salmonella typhimurium [9])	diameter of the inhibition zone (DIZ) (Salmonella typhimurium [11])	zone of inhibition at 100 µg/mL (Pseudomonas aeruginosa [12]) [mm]	MIC (Candida albicans [13]) [µg/mL]	MIC (Salmonella typhimurium [14]) [µg/mL]	diameter of the inhibition zone (DIZ) [15]	diameter of the inhibition zone (DIZ) (Candida albicans [3])	zone of inhibition at 100 µg/mL (Salmonella typhimurium [9]) [mm]	zone of inhibition at 100 µg/mL (Staphylococcus aureus [10]) [mm]	zone of inhibition at 50 µg/mL (Salmonella typhimurium [11]) [mm]	zone of inhibition at 100 µg/mL [15] [mm]	zone of inhibition at 50 µg/mL [8] [mm]	other results
N#Cc1ccc(Cn2cc(C(=O)O)c(=O)c3ccc(C(F)(F)F)cc32)cc1	8.33	inactive	7.6	25 (≈ 67.1 µM)	> 100	> 100	8	inactive	inactive	inactive	8	50 (≈ 134 µM)	> 100	inactive							diameter of the inhibition zone (DIZ) (Staphylococcus aureus [10]): inactive
NNC(=O)c1cn(Cc2ccc(Cl)cc2Cl)c2c(C(F)(F)F)cccc2c1=O		inactive		25 (≈ 58.1 µM)	100 (≈ 232 µM)	> 100	8	inactive			8	> 100	25 (≈ 58.1 µM)	inactive	inactive	12	9	11.3			diameter of the inhibition zone (DIZ) (Candida albicans [1]): inactive; Activity (Penicillium chrysogenum): inactive
C#CCn1cc(C(=O)OCC)c(=O)c2ccc(C(F)(F)F)cc21	8.33	inactive		50 (≈ 155 µM)	100 (≈ 309 µM)	100 (≈ 309 µM)	7	inactive			8	100 (≈ 309 µM)	25 (≈ 77.3 µM)		inactive	11	9	10.3	9		
O=C(O)c1cn(Cc2ccc(Cl)cc2Cl)c2cc(C(F)(F)F)ccc2c1=O	7	inactive		> 100	100 (≈ 240 µM)	> 100		inactive	inactive	inactive		50 (≈ 120 µM)	> 100	inactive	inactive		10				diameter of the inhibition zone (DIZ) (Pseudomonas aeruginosa [7]): inactive; diameter of the inhibition zone (DIZ) (Pseudomonas aeruginosa [12]): inactive
O=C(O)c1cn(Cc2ccc(Cl)cc2Cl)c2c(C(F)(F)F)cccc2c1=O	9	inactive	7	25 (≈ 60.1 µM)	100 (≈ 240 µM)	25 (≈ 60.1 µM)	13.6		inactive	inactive	14	50 (≈ 120 µM)	> 100				9		12	11	
O=C(O)c1cn(C2CC2)c2cc(N3CCNCC3)c(F)cc2c1=O [CIPROFLOXACIN]				< 5	< 5	< 5	26.6				30		< 5			37	13	37	30	29	zone of inhibition at 50 µg/mL (Staphylococcus aureus [16]): 13 mm
